From paper PMC8397403, “Physiologically Based Pharmacokinetic Modeling of Transporter-Mediated Hepatic Disposition of Imaging Biomarker Gadoxetate in Rats” (Molecular Pharmaceutics, 2021)
Read-outs that look alike come from different tables or passages of the source. Marks after values point to notes of the source that are not given here.

Tests used:
[1] = Bottom-up IVIVE of gadoxetate transporter kinetic data / PBPK model; set-up: species or system rat
Method: IVIVE of gadoxetate CLactive,u and CLpassive,u was performed by scaling these parameters to in vivo values (CLactive,u,in vivo and CLpassive,u,in vivo; mL/min/kg body weight) using a hepatocellularity of 120 × 10^6 cells/g liver,[34] and a liver weight (wliver) of 40 g/kg body weight,[38] as in eq 3. [drawing 3] 3
A reduced PBPK model was developed to describe the PK of gadoxetate in rats; a permeability-limited liver model was implemented capturing relevant processes, as done previously.[6],[41] The compartments represent the blood, spleen, splanchnic organs, liver interstitial space, hepatocytes, and the rest of the body (ROB) vascular and extravascular spaces. The ROB compartment includes muscles, skin, bones, and fat among others. Details of model equations and physiological parameters values are reported in the Supporting Information, Sections 2, 3, and 5.
Standard kinetic models used for MRI contrast agents generally describe the organs by using three compartments: plasma, interstitial, and intracellular spaces.[12],[42],[43] Gadoxetate distributes only in the extracellular space of all the organs; liver is the exception, where gadoxetate undergoes active uptake into the hepatocytes.[44] Therefore, in the gadoxetate PBPK model, the volume of all the compartments, except the blood and the liver, corresponded to the organ extracellular space, that in turn was considered to be composed of the blood within the organ and the interstitial space. For highly vascularized and perfused organs with fenestrated capillaries (e.g., liver), the exchange between the plasma and the interstitial space is generally considered to be fast.[12],[19] Therefore, for liver, spleen, and splanchnic compartments, the extracellular volumes were considered to be the sum of the blood within the organ and the interstitial space volumes. […] A permeability limitation between the vascular and interstitial space was, therefore, assumed for the ROB compartment, as shown in eq 5. [drawing 5] 5 cb, crob,v and crob,ev [μmol/L] are the gadoxetate concentration in blood and ROB vascular and extravascular compartments; Vrob,v and Vrob,ev [L] are the ROB vascular and extravascular compartment volumes, respectively; and PS [L/h] is the permeability surface product.
To describe the gadoxetate-active uptake into the hepatocytes, a permeability-limited liver model was used, as shown in eq 6. [drawing 6] 6 inputsplan [μmol/h] represent the venous input from the splanchnic organs, while inputart [μmol/h] is the input from the hepatic artery; cliv,extr and cliv,cell [μmol/L] are the drug concentrations in the extracellular liver (tissue blood plus interstitial space) and in the hepatocytes, respectively; Vliv,extr and Vliv,int [L] are the extracellular and hepatocytes liver volumes; Qh [L/h] is the liver blood flow; Kliv,extr-b is the extracellular liver to blood partition coefficient; CLactive and CLpassive [L/h] are the active and passive clearances across the hepatocytes cell membrane; CLbiliary [L/h] is the clearance representing the excretion from the hepatocytes into the bile; and fu,liv,cell is the gadoxetate fraction unbound in the hepatocytes (obtained from the in vitro generated data fu,cell). Recent PBPK studies of hepatic transporter substrates have used a 5-compartment liver model[45] and the use of this particular liver model was also explored in the current PBPK modeling.
All the parameters were initially obtained using literature values and in vitro experiments. Prospective transporter clearance IVIVE was performed with the aim of predicting the gadoxetate ΔR1 in blood, spleen, and liver after administration of gadoxetate alone (in the absence of an inhibitor). CLactive, CLpassive, and fu,liv,cell were obtained from the in vitro experimental values obtained in this study, as detailed in the section “Data Analysis and Quantitative Translation”. CLr was fixed to a literature value, as in Table 3. […]

[2] = renal clearance calculated as CLtotal × fe, rat weight 0.25 kg; fixed literature value; cited from earlier work
[3] = set-up: method as in PMID 32851735; settings: cited from earlier work; for Ex vivo relaxivity r1, blood: spleen assumed equal to blood
[4] = scaled from in vitro, 120 × 10^6 cells/g liver, 40 g liver/kg

CLbiliary, bottom-up scaled value ([1]; Monte Carlo mean, value assumed equal to CLpassive): 0.014 ^a^, ^c L/h
CLactive, bottom-up scaled value ([1]; mean value calculated from the Monte Carlo analysis, rat 0.25 kg): 0.23 ^a L/h
PS, bottom-up scaled value ([1]; permeability surface product, Monte Carlo mean, value assumed equal to CLpassive): 0.014 ^a^, ^c L/h
predicted in vivo active uptake clearance (CLactive,u,in vivo) [1, 4]: 14.7 mL/min/kg body weight
predicted in vivo passive clearance (CLpassive,u,in vivo) [1, 4]: 0.93 mL/min/kg body weight
CLpassive ([1]; scaled from the mean in vitro value in Table 2, fixed in PBPK model): 0.014 L/h
SMILES: CCOc1ccc(C[C@@H](CN(CCN(CC(=O)[O-])CC(=O)[O-])CC(=O)[O-])N(CC(=O)[O-])CC(=O)[O-])cc1.[Gd+3].[H+].[H+] [gadoxetate]
CLr [2]: 0.17 L/h
Ex vivo relaxivity r1, hepatocytes ([3]; 4.7 T): 7.6 s^–1/mM
Ex vivo relaxivity r1, blood ([3]; 4.7 T): 6.4 s^–1/mM
Ex vivo relaxivity r1, hepatocytes ([3]; 7 T): 6 s^–1/mM
Ex vivo relaxivity r1, blood ([3]; 7 T): 6.2 s^–1/mM
